Data reported in patent publication US20040228906A1 (priority 2001, published 2004).
Like-named read-outs stand apart in the source and are kept apart here.

Legend:
[1] = cited from earlier work
[2] = cited from earlier work; remark: listed apart in the source
[3] = test system: bladder or urethra; details: epidural application, 4 μg/kg (Batra) or 2 μg/kg (Drenger, dogs); cited from earlier work
[4] = test system: bladder function; details: rat model with rhythmic bladder contraction; cited from earlier work
[5] = test system: bladder overactivity induced by oxyhemoglobine; assay: Cystometry with wake rats damaged by oxyhemoglobin (urge incontinence model); type: in vivo, Sprague-Dawley rat
[6] = after use of the substances, OxyHb 2.5 × 10^−4M, buprenorphine 0.005 mg/kg iv where given
[7] = before use of the substances, OxyHb 2.5 × 10^−4M, buprenorphine 0.005 mg/kg iv where given
[8] = change compared to the pre-basis

Which plasma concentration ([1]; about 5 minutes after intravenous 0.3 mg) does the source give for “21-cyclopropyl-7-α-[(S)-1-hydroxy-1,2,2-trimethylpropyl]-6,14-endo-ethano-6,7,8,14-tetrahydrooripavine [buprenorphine]” here?
Its plasma concentration is “about 9 ng/ml”.

What about the plasma concentration ([1]; about 3 hours after intramuscular 0.3-mg dose) of the same molecule?
The plasma concentration was “about 0.4 ng/ml”.

What about the “time of mean peak plasma concentration” value ([1]; intravenous single dose of about 0.3 mg) of the same molecule?
The value was ≤ 2 min.

What about the Cmax ([2]; 0.4 mg sublingual dose) of the same molecule?
The Cmax was 0.50 ng/mL.

What about the Cmax ([2]; 0.8 mg sublingual dose) of the same molecule?
The Cmax was 1.04 ng/mL.

What about the “influence on the function of bladder or urethra” value [3] of the same molecule?
Its value is “does not have a significant influence”.

For `COc1cccc(C2(O)CCCCC2CN(C)C)c1` (stereo not shown) [tramadol], which “effect on bladder function” value [4] is on record?
Its value is “positive effect”.

For OxyHb, which “ICI inter-contraction interval, after (a)” value [5, 6] is on record?
Its value is “a: 3.33 ± 0.18 min”.

And the “MP Micturition pressure, after (a)” value [5, 6]?
Its value is “a: 97 ± 5 cm H2O”.

What about the “TP threshold pressure, after (a)” value [5, 6] of the same molecule?
Its value is “a: 9.84 ± 1.56 cm H2O”.

What about the “bladder capacity, after (a)” value [5, 6] of the same molecule?
Its value is “a: 0.65 ± 0.06 ml”.

And the “ICI inter-contraction interval, before (b)” value [5, 7]?
Its value is “b: 4.96 ± 0.33 min”.

What about the “MP Micturition pressure, before (b)” value [5, 7] of the same molecule?
Its value is “b: 59 ± 8 cm H2O”.

And the “TP threshold pressure, before (b)” value [5, 7]?
The value was “b: 8.72 ± 1.31 cm H2O”.

And the “bladder capacity, before (b)” value [5, 7]?
Its value is “b: 0.92 ± 0.10 ml”.

And the “ICI inter-contraction interval, Diff.” value [5, 8]?
Its value is “Diff.: −32.9%”.

What about the “MP Micturition pressure, Diff.” value [5, 8] of the same molecule?
The value was “Dif.: +64.4%”.

What about the “TP threshold pressure, Diff.” value [5, 8] of the same molecule?
The value was “Diff.: +12.8%”.

And the “bladder capacity, Diff.” value [5, 8]?
The value was “Diff.: −29.3%”.
